Tested on: 3T3-L1
Assay: [1-3H]-2-deoxy-D-glucose uptake in 3T3 L1 adipocytes
Type: functional, Mus musculus
Design: reference not given here

Row | Structure (SMILES) | Activity [Bq]
1 | O=C(OC[C@H]1O[C@@H](OC(=O)c2cc(O)cc(O)c2)[C@H](OC(=O)c2cc(O)cc(O)c2)[C@@H](OC(=O)c2cc(O)cc(O)c2)[C@@H]1OC(=O)c1cc(O)cc(O)c1)c1cc(O)cc(O)c1 | 30
2 | O=C(O[C@H]1O[C@H](CO)[C@@H](OC(=O)c2cc(O)c(O)c(O)c2)[C@H](OC(=O)c2cc(O)c(O)c(O)c2)[C@H]1OC(=O)c1cc(O)c(O)c(O)c1)c1cc(O)c(O)c(O)c1 | 143
3 | O=C(O[C@H]1O[C@H](CCl)[C@@H](OC(=O)c2cc(O)c(O)c(O)c2)[C@H](OC(=O)c2cc(O)c(O)c(O)c2)[C@H]1OC(=O)c1cc(O)c(O)c(O)c1)c1cc(O)c(O)c(O)c1 | 181
4 | O=C(OC[C@H]1O[C@H](OC(=O)c2cc(O)c(O)c(O)c2)[C@H](OC(=O)c2cc(O)c(O)c(O)c2)[C@@H](OC(=O)c2cc(O)c(O)c(O)c2)[C@@H]1OC(=O)c1cc(O)c(O)c(O)c1)c1cc(O)c(O)c(O)c1 | 145
5 | O=C(OC[C@H]1O[C@H](OC(=O)c2cc(O)cc(O)c2)[C@H](OC(=O)c2cc(O)cc(O)c2)[C@@H](OC(=O)c2cc(O)cc(O)c2)[C@@H]1OC(=O)c1cc(O)cc(O)c1)c1cc(O)cc(O)c1 | 16
6 | O=C(OC[C@H]1O[C@@H](OC(=O)c2cc(O)c(O)c(O)c2)[C@H](OC(=O)c2cc(O)c(O)c(O)c2)[C@@H](OC(=O)c2cc(O)c(O)c(O)c2)[C@H]1OC(=O)c1cc(O)c(O)c(O)c1)c1cc(O)c(O)c(O)c1 | 19
7 | O=C(OC[C@H]1O[C@@H](OC(=O)c2ccc(O)cc2)[C@H](OC(=O)c2ccc(O)cc2)[C@@H](OC(=O)c2ccc(O)cc2)[C@@H]1OC(=O)c1ccc(O)cc1)c1ccc(O)cc1 | 27
8 | O=C(OC[C@H]1O[C@@H](OC(=O)c2cc(O)c(O)c(O)c2)[C@H](OC(=O)c2cc(O)c(O)c(O)c2)[C@H](OC(=O)c2cc(O)c(O)c(O)c2)[C@@H]1OC(=O)c1cc(O)c(O)c(O)c1)c1cc(O)c(O)c(O)c1 | 34
9 | C[C@H]1O[C@@H](OC(=O)c2cc(O)c(O)c(O)c2)[C@H](OC(=O)c2cc(O)c(O)c(O)c2)[C@@H](OC(=O)c2cc(O)c(O)c(O)c2)[C@@H]1OC(=O)c1cc(O)c(O)c(O)c1 | 15
10 | O=C(OC[C@H]1O[C@H](OC(=O)c2cc(O)c(O)c(O)c2)C[C@@H](OC(=O)c2cc(O)c(O)c(O)c2)[C@@H]1OC(=O)c1cc(O)c(O)c(O)c1)c1cc(O)c(O)c(O)c1 | 29
11 | O=C(OC[C@@H]1C[C@H](OC(=O)c2cc(O)c(O)c(O)c2)[C@@H](OC(=O)c2cc(O)c(O)c(O)c2)[C@H](OC(=O)c2cc(O)c(O)c(O)c2)O1)c1cc(O)c(O)c(O)c1 | 30
12 | O=C(OC[C@H]1O[C@@H](OC(=O)c2cc(O)c(O)c(O)c2)C[C@@H](OC(=O)c2cc(O)c(O)c(O)c2)[C@@H]1OC(=O)c1cc(O)c(O)c(O)c1)c1cc(O)c(O)c(O)c1 | 15
13 | O=C(O[C@@H]1OC[C@@H](OC(=O)c2cc(O)c(O)c(O)c2)[C@H](OC(=O)c2cc(O)c(O)c(O)c2)[C@@H]1OC(=O)c1cc(O)c(O)c(O)c1)c1cc(O)c(O)c(O)c1 | 7
14 | O=C(OC[C@H]1O[C@H](OC(=O)c2ccc(O)c(O)c2)[C@H](OC(=O)c2ccc(O)c(O)c2)[C@@H](OC(=O)c2ccc(O)c(O)c2)[C@@H]1OC(=O)c1ccc(O)c(O)c1)c1ccc(O)c(O)c1 | 10
15 | O=C(OC[C@H]1O[C@H](OC(=O)c2cc(O)c(O)c(O)c2)[C@H](OC(=O)c2cc(O)c(O)c(O)c2)[C@H](OC(=O)c2cc(O)c(O)c(O)c2)[C@@H]1OC(=O)c1cc(O)c(O)c(O)c1)c1cc(O)c(O)c(O)c1 | 23
16 | O=C(OC[C@H]1O[C@@H](OC(=O)c2cc(O)c(O)c(O)c2)[C@@H](OC(=O)c2cc(O)c(O)c(O)c2)[C@@H](OC(=O)c2cc(O)c(O)c(O)c2)[C@@H]1OC(=O)c1cc(O)c(O)c(O)c1)c1cc(O)c(O)c(O)c1 | 19
17 | CC(=O)OC[C@H]1O[C@H](OC(C)=O)[C@H](OC(C)=O)[C@@H](OC(C)=O)[C@@H]1OC(C)=O | 31
18 | O=C(O[C@H]1OC[C@@H](OC(=O)c2cc(O)c(O)c(O)c2)[C@H](OC(=O)c2cc(O)c(O)c(O)c2)[C@H]1OC(=O)c1cc(O)c(O)c(O)c1)c1cc(O)c(O)c(O)c1 | 124
19 | O=C(O[C@H]1OC[C@@H](OC(=O)c2cc(O)c(O)c(O)c2)[C@H](OC(=O)c2cc(O)c(O)c(O)c2)[C@@H]1OC(=O)c1cc(O)c(O)c(O)c1)c1cc(O)c(O)c(O)c1 | 21
20 | O=C(OC[C@H]1O[C@@H](OC(=O)c2ccc(O)c(O)c2)[C@H](OC(=O)c2ccc(O)c(O)c2)[C@@H](OC(=O)c2ccc(O)c(O)c2)[C@@H]1OC(=O)c1ccc(O)c(O)c1)c1ccc(O)c(O)c1 | 20

Row | Structure (SMILES) | Activity [Bq]
21 | O=C(OC[C@H]1O[C@H](OC(=O)c2ccccc2)[C@H](OC(=O)c2ccccc2)[C@@H](OC(=O)c2ccccc2)[C@@H]1OC(=O)c1ccccc1)c1ccccc1 | 34
22 | O=C(O[C@@H]1OC[C@@H](OC(=O)c2cc(O)c(O)c(O)c2)[C@H](OC(=O)c2cc(O)c(O)c(O)c2)[C@H]1OC(=O)c1cc(O)c(O)c(O)c1)c1cc(O)c(O)c(O)c1 | 21
23 | O=C(OC[C@@H]1C[C@H](OC(=O)c2cc(O)c(O)c(O)c2)[C@@H](OC(=O)c2cc(O)c(O)c(O)c2)[C@@H](OC(=O)c2cc(O)c(O)c(O)c2)O1)c1cc(O)c(O)c(O)c1 | 28
24 | O=C(OC[C@H]1OC[C@H](OC(=O)c2cc(O)c(O)c(O)c2)[C@@H](OC(=O)c2cc(O)c(O)c(O)c2)[C@@H]1OC(=O)c1cc(O)c(O)c(O)c1)c1cc(O)c(O)c(O)c1 | 5
25 | O=C(OC[C@H]1O[C@H](OC(=O)c2ccc(O)cc2)[C@H](OC(=O)c2ccc(O)cc2)[C@@H](OC(=O)c2ccc(O)cc2)[C@@H]1OC(=O)c1ccc(O)cc1)c1ccc(O)cc1 | 30
26 | O=C(O[C@H]1OC[C@@H](OC(=O)c2cc(O)c(O)c(O)c2)[C@@H](OC(=O)c2cc(O)c(O)c(O)c2)[C@H]1OC(=O)c1cc(O)c(O)c(O)c1)c1cc(O)c(O)c(O)c1 | 10
27 | C[C@H]1O[C@H](OC(=O)c2cc(O)c(O)c(O)c2)[C@H](OC(=O)c2cc(O)c(O)c(O)c2)[C@@H](OC(=O)c2cc(O)c(O)c(O)c2)[C@@H]1OC(=O)c1cc(O)c(O)c(O)c1 | 115
28 | O=C(OC[C@H]1O[C@H](OC(=O)c2cc(O)c(O)c(O)c2)[C@@H](OC(=O)c2cc(O)c(O)c(O)c2)[C@@H](OC(=O)c2cc(O)c(O)c(O)c2)[C@@H]1OC(=O)c1cc(O)c(O)c(O)c1)c1cc(O)c(O)c(O)c1 | 20
29 | O=C(OC[C@H]1O[C@H](OC(=O)c2cc(O)c(O)c(O)c2)[C@H](OC(=O)c2cc(O)c(O)c(O)c2)C[C@@H]1OC(=O)c1cc(O)c(O)c(O)c1)c1cc(O)c(O)c(O)c1 | 11
30 | O=C(OC[C@H]1O[C@@H](OC(=O)c2cc(O)c(O)c(O)c2)[C@H](OC(=O)c2cc(O)c(O)c(O)c2)C[C@@H]1OC(=O)c1cc(O)c(O)c(O)c1)c1cc(O)c(O)c(O)c1 | 7
31 | O=C(O[C@@H]1OC[C@@H](OC(=O)c2cc(O)c(O)c(O)c2)[C@@H](OC(=O)c2cc(O)c(O)c(O)c2)[C@H]1OC(=O)c1cc(O)c(O)c(O)c1)c1cc(O)c(O)c(O)c1 | 12
32 | OC[C@H]1O[C@H](O)[C@H](O)[C@@H](O)[C@@H]1O | 34
33 | O=C(OC[C@H]1O[C@H](OC(=O)c2cc(O)c(O)c(O)c2)[C@H](OC(=O)c2cc(O)c(O)c(O)c2)[C@@H](OC(=O)c2cc(O)c(O)c(O)c2)[C@H]1OC(=O)c1cc(O)c(O)c(O)c1)c1cc(O)c(O)c(O)c1 | 22
34 | CC(=O)OC[C@H]1O[C@@H](OC(C)=O)[C@H](OC(C)=O)[C@@H](OC(C)=O)[C@@H]1OC(C)=O | 24
35 | O=C(OC[C@H]1OC(OC(=O)c2cc(O)c(O)c(O)c2)[C@H](OC(=O)c2cc(O)c(O)c(O)c2)[C@@H](OC(=O)c2cc(O)c(O)c(O)c2)[C@@H]1OC(=O)c1cc(O)c(O)c(O)c1)c1cc(O)c(O)c(O)c1 (single isomer, unassigned) [PENTAGALLOYL GLUCOSE] | 107
36 | O=C(OC1OC[C@H](OC(=O)c2cc(O)c(O)c(O)c2)[C@H](OC(=O)c2cc(O)c(O)c(O)c2)[C@H]1OC(=O)c1cc(O)c(O)c(O)c1)c1cc(O)c(O)c(O)c1 (single isomer, unassigned; 63) | 23
37 | O=C(OC1OC[C@H](OC(=O)c2cc(O)c(O)c(O)c2)[C@H](OC(=O)c2cc(O)c(O)c(O)c2)[C@H]1OC(=O)c1cc(O)c(O)c(O)c1)c1cc(O)c(O)c(O)c1 (single isomer, unassigned; 65) | 14
38 | O=c1oc2c(O)c(O)cc3c(=O)oc4c(O)c(O)cc1c4c23 [ELLAGIC ACID] | 27
39 | COC(=O)c1cc(O)c(O)c(O)c1 [GALLIC ACID METHYL ESTER] | 20
40 | O=C(O)c1cc(O)c(O)c(O)c1 [GALLIC ACID] | 31

From ChEMBL document CHEMBL1147667, “Synthesis and structure-activity relationship study of antidiabetic penta-O-galloyl-D-glucopyranose and its analogues” (2006)
